Laboratory results taken from patent US9447091B2, “Protein kinase inhibitors” (Orion Corporation, priority 2011, dated 2016).

What was measured:
[1] = target: FGFR1 kinase (Homo sapiens (Human), UniProt P11362); test: FGFR1 TR-FRET kinase assay; type: biochemical; settings: for inhibition at 1 µM: 1000 nM compound; for IC50: 13 μM ATP, read-out: IC50 of FGFR1 inhibition
Description: Compounds were screened in the TR-FRET assay with FGFR1 kinase. 5 ng of FGFR1 [Upstate, USA] kinase was used for assay. The compound was incubated with the kinase for 30 minutes at RT. After the incubation, substrate mix [40 nM Ultra light poly GT (Perkin Elmer, USA) and 13 μM ATP (Sigma)] was added. The above reaction was stopped by the addition of 40 mM EDTA after the […] kinase reaction. The Eu-labelled antiphospho-tyrosine antibody [Perkin Elmer, USA] was added at 0.5 nM and the fluorescence emission at 615 nm/665 nm [excitation at 340 nm] was measured. The compounds were initially screened at 100 nM and 1 μM concentrations. The compounds with >50% inhibition at 100 nM of FGFR1 were taken for the full dose response studies. The final DMSO concentration in the assay was 1%. For IC50 determination, ⅓^rd serial dilution was made from the 20 mM DMSO stock solution. 2 μl of these were transferred to the test wells containing 20 μl of the reaction mixture [total reaction volume 20 μl]. The fluorescence was measured in Perkin Elmer Wallac 1420 Multilabel Counter Victor 3. The IC50 was determined by fitting the dose response data to sigmoidal curve fitting equation using GraphPad Prism software V5.

[2] = target: c-Met kinase (Homo sapiens (Human), UniProt P08581); test: c-Met TR-FRET kinase assay; type: biochemical; settings: 1000 nM compound
Description: Compounds were screened in the TR-FRET assay with c-Met kinase. 0.1 ng of c-Met [expressed in-house] kinase was used for assay. The compound was incubated with the kinase for 60 min at RT. After the incubation, substrate mix [40 nM Ultra light poly GT (Perkin Elmer, USA) and 10 μM ATP (Sigma)] was added. The above reaction was stopped by the addition of 40 mM EDTA after the 30 min kinase reaction. The Eu-labelled antiphospho-tyrosine antibody [Perkin Elmer, USA] was added at 0.5 nM and the fluorescence emission at 615 nm/665 nm [excitation at 340 nm] was measured. The compounds were initially screened at 100 nM and 1 μM concentrations. The compounds with >50% inhibition at 100 nM of c-Met were taken for the full dose response studies. The final DMSO concentration in the assay was 1%. For IC50 determination, ⅓rd serial dilution was made from the 20 mM DMSO stock solution. 2 μl of these were transferred to the test wells containing 20 μl reaction mixture [total reaction volume 20 μl]. The fluorescence was measured in Perkin Elmer Wallac 1420 Multilabel Counter Victor 3. The IC50 was determined by fitting the dose response data to sigmoidal curve fitting equation using GraphPad Prism software V5.

Sequence of FGFR1 kinase (P11362 22-822): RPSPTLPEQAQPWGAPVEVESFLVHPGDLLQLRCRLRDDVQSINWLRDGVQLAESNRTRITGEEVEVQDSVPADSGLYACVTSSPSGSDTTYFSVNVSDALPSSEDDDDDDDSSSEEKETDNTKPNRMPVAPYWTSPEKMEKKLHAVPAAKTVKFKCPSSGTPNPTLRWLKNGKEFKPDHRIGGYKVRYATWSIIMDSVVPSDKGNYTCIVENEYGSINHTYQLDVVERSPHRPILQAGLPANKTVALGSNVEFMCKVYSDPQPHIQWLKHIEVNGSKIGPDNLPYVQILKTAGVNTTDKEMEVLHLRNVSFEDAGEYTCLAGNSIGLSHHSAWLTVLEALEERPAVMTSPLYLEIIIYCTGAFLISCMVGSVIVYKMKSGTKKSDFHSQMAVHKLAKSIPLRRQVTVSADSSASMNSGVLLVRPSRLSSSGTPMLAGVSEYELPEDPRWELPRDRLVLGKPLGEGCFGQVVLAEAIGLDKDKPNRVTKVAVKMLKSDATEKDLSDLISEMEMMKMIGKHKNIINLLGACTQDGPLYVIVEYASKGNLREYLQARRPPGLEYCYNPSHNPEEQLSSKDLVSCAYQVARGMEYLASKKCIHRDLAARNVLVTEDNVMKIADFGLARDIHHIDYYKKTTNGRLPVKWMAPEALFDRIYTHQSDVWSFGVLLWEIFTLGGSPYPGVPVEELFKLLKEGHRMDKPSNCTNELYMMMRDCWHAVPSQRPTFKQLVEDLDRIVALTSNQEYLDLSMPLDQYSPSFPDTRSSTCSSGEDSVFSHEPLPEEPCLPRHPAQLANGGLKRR
Sequence of c-Met kinase (P08581 25-1390): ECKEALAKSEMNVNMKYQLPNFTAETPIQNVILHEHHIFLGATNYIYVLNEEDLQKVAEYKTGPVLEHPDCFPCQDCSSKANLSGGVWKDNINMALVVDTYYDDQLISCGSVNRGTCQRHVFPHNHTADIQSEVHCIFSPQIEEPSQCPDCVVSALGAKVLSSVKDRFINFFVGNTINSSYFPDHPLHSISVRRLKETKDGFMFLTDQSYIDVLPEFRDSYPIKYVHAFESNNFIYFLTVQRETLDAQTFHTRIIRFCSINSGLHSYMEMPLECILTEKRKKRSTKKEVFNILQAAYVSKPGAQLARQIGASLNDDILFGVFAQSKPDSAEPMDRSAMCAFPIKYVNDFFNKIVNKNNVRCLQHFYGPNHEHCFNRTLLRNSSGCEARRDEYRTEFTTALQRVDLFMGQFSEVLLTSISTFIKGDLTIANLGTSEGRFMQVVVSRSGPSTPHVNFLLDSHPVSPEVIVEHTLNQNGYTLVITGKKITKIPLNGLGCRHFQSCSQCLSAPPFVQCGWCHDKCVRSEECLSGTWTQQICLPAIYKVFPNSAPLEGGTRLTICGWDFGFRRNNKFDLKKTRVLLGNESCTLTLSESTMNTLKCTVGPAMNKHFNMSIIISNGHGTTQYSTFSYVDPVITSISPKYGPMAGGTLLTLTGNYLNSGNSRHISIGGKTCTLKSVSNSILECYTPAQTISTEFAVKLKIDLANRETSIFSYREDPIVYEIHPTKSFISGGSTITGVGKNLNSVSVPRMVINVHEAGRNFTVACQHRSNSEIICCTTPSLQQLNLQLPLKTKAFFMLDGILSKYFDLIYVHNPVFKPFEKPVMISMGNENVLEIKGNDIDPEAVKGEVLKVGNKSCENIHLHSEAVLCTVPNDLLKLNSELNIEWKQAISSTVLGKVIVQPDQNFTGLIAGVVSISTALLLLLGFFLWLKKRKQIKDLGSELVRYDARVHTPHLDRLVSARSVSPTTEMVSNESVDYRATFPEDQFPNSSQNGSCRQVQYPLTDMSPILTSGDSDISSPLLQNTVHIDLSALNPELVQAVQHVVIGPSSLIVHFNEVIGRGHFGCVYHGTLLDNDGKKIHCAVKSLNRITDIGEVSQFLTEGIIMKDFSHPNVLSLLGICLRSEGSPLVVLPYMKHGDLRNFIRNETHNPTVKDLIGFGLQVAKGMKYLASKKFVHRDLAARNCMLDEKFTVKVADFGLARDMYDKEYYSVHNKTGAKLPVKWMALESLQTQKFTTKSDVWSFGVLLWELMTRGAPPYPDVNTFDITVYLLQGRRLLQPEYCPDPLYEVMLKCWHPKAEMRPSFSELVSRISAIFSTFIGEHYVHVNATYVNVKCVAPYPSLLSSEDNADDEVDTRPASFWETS

| inhibition at 1 µM [1] [%] | IC50 [1] [nM] | inhibition at 1 µM [2] [%] | SMILES |
| --- | --- | --- | --- |
| 89 | 62 | 1 | CC(=O)Nc1cc(-n2cncn2)cc(-n2cnc3cc(-c4cnn(C)c4)ccc32)c1 [Example 155, N-(3-(5-(1-methyl-1H-pyrazol-4-yl)-1H-benzo[d]imidazol-1-yl)-5-(1H-1,2,4-triazol-1-yl)phenyl)acetamide] |
| 93 | 34 | 12 | CC(C)S(=O)(=O)Nc1cc(-c2ccc(F)cc2F)cc(-n2cnc3cc(-c4cnco4)ccc32)c1 [Example 25, N-(2′,4′-difluoro-5-(5-(oxazol-5-yl)-1H-benzo[d]imidazol-1-yl)biphenyl-3-yl)-propane-2-sulfonamide] |
| 91 | 48 | 0 | CC(C)S(=O)(=O)Nc1cc(-c2cc(F)ccc2F)cc(-n2cnc3cc(-c4cnn(CCN5CCOCC5)c4)ccc32)c1 [Example 142, N-(2′,5′-difluoro-5-(5-(1-(2-morpholinoethyl)-1H-pyrazol-4-yl)-1H-benzo[d]-imidazol-1-yl)biphenyl-3-yl)propane-2-sulfonamide] |
| 93 | 21 | 2 | O=S(=O)(Nc1cc(-c2ccc(F)cc2F)cc(-n2cnc3cc(-c4cnco4)ccc32)c1)c1ccccc1 [Example 26, N-(2′,4′-difluoro-5-(5-(oxazol-5-yl)-1H-benzo[d]imidazol-1-yl)biphenyl-3-yl)-benzenesulfonamide] |
| 95 | 12 | 7 | Cn1cc(-c2ccc3c(c2)ncn3-c2cc(NS(=O)(=O)C3CC3)cc(-c3ccc(F)cc3F)c2)cn1 [Example 5, N-(2′,4′-difluoro-5-(5-(1-methyl-1H-pyrazol-4-yl)-1H-benzo[d]imidazol-1-yl)-biphenyl-3-yl)cyclopropanesulfonamide] |
| 99 | 10 | 0 | CC(=O)Nc1cc(-c2ccc(F)cc2)cc(-n2cnc3cc(-n4cccn4)ccc32)c1 [Example 70, N-(5-(5-(1H-pyrazol-1-yl)-1H-benzo[d]imidazol-1-yl)-4′-fluorobiphenyl-3-yl)-acetamide] |
| 95 | 37 | 5 | CC(=O)Nc1cc(-c2ccc(C)o2)cc(-n2cnc3cc(-c4cnn(CCN5CCOCC5)c4)ccc32)c1 [Example 83, N-(3-(5-methylfuran-2-yl)-5-(5-(1-(2-morpholinoethyl)-1H-pyrazol-4-yl)-1H-benzo[d]imidazol-1-yl)phenyl)acetamide] |
| 94 | 16 | 1 | CCS(=O)(=O)Nc1cc(-c2ccc(F)cc2F)cc(-n2cnc3cc(-n4cccn4)ccc32)c1 [Example 30, N-(5-(5-(1H-pyrazol-1-yl)-1H-benzo[d]imidazol-1-yl)-2′,4′-difluorobiphenyl-3-yl)ethanesulfonamide] |
| 87 | 22 | -2 | COc1ccc(-c2ccc3c(c2)ncn3-c2cc(NC(C)=O)cc(-c3ccc(F)cc3)c2)cn1 [Example 69, N-(4′-fluoro-5-(5-(6-methoxypyridin-3-yl)-1H-benzo[d]imidazol-1-yl)biphenyl-3-yl)acetamide] |
| 97 | 14 | 0 | CCS(=O)(=O)Nc1cc(-c2ccc(F)cc2F)cc(-n2cnc3cc(-c4cnn(C)c4)cnc32)c1 [Example 133, N-(2′,4′-difluoro-5-(6-(1-methyl-1H-pyrazol-4-yl)-3H-imidazo[4,5-b]pyridin-3-yl)biphenyl-3-yl)ethanesulfonamide] |
| 99 | 1.3 | 15 | CC(=O)Nc1cc(-c2ccc(F)cc2F)cc(-n2cnc3cc(-c4cnn(C)c4)cnc32)c1 [Example 131, N-(2′,4′-difluoro-5-(6-(1-methyl-1H-pyrazol-4-yl)-3H-imidazo[4,5-b]pyridin-3-yl)biphenyl-3-yl)acetamide] |
| 88 | 33 | 0 | O=C(Nc1cc(-c2ccc(F)cc2F)cc(-n2cnc3cc(-n4cccn4)ccc32)c1)NC1CCCC1 [Example 38, 1-(5-(5-(1H-pyrazol-1-yl)-1H-benzo[d]imidazol-1-yl)-2′,4′-difluorobiphenyl-3-yl)-3-cyclopentylurea] |
| 79 | 7.3 | 0 | CC(=O)Nc1cc(-c2c(F)cccc2F)cc(-n2cnc3cc(-n4cccn4)ccc32)c1 [Example 152, N-(5-(5-(1H-pyrazol-1-yl)-1H-benzo[d]imidazol-1-yl)-2′,6′-difluorobiphenyl-3-yl)acetamide] |
| 96 | 16 | 15 | CC(=O)Nc1cc(-c2ccc(C)o2)cc(-n2cnc3cc(-c4cnn(CCN(C)C)c4)ccc32)c1 [Example 82, N-(3-(5-(1-(2-(dimethylamino)ethyl)-1H-pyrazol-4-yl)-1H-benzo[d]imidazol-1-yl)-5-(5-methylfuran-2-yl)phenyl)acetamide] |
| 92 | 98 | 0 | Cn1cc(-c2cnc3c(c2)ncn3-c2cc(NS(=O)(=O)c3ccccc3)cc(-c3ccc(F)cc3F)c2)cn1 [Example 134, N-(2′,4′-difluoro-5-(6-(1-methyl-1H-pyrazol-4-yl)-3H-imidazo[4,5-b]pyridin-3-yl)biphenyl-3-yl)benzenesulfonamide] |
| 98 | 32 | 11 | CCS(=O)(=O)Nc1cc(-c2ccc(F)cc2)cc(-n2cnc3cc(-n4cccn4)ccc32)c1 [Example 72, N-(5-(5-(1H-pyrazol-1-yl)-1H-benzo[d]imidazol-1-yl)-4′-fluorobiphenyl-3-yl)-ethanesulfonamide] |
| 99 | 7 | 10 | CC(C)(O)CCn1cc(-c2ccc3c(c2)ncn3-c2cc(NS(=O)(=O)C3CC3)cc(-c3ccc(F)cc3F)c2)nn1 [Example 47, N-(2′,4′-difluoro-5-(5-(1-(3-hydroxy-3-methylbutyl)-1H-1,2,3-triazol-4-yl)-1H-benzo[d]imidazol-1-yl)biphenyl-3-yl)cyclopropanesulfonamide] |
